The values below are quoted from earlier work in patent publication US20150099751A1, “IN SITU GEL LOADED WITH PHOSPHODIESTERASE TYPE V INHIBITORS NANOEMULSION” (KING ABDULAZIZ UNIVERSITY, priority 2013, published 2015).

Molecules are shown by their SMILES.

Data set [1] deals with male lower urinary tract syndrome (LUTS). Particulars: after 12 weeks of treatment.
For data set [2] the following is noted: administration by mouth (orally).
For data set [3], the system named is isolated human corpus cavernosum. The note with it: at the recommended doses.

For `CCCc1nn(C)c2c(=O)[nH]c(-c3cc(S(=O)(=O)N4CCN(C)CC4)ccc3OCC)nc12` [Sildenafil, 1[4ethoxy3(6.7dihydro1methyl7oxo3propyl1Hpyrazolo [4,3d]pyrimidin5yl)phenylsulfonyl]4methylpiperazine], the “International Prostate Symptom Score (IPSS) and LUTS-specific quality of life (QoL) score” value in data set [1] is recorded as “overall improvement”. Further, the bioavailability result in data set [2] is “approximately 40%”. In addition, in data set [3], the “direct relaxant effect on the isolated human corpus cavernosum” value is recorded as “no direct relaxant effect”.
